One data set deals with IgG Fc. Description: Competition between reactive peptide (F1) and non-reactive peptide. The following applies: non-reactive peptide added to the reaction of F1 and IgG. Format: biochemical, human. As for the experimental part:
(FIG. 3A) The structures of peptides used in this work. FITC moiety was added at the N-termini of the peptides to MST analysis.

Another data set has as its target atezolizumab (Homo sapiens, UniProt P01857, D239E/L241M/N180A). Briefly: Acetylation of atezolizumab by peptide F1, MALDI-TOF MS / SDS-PAGE. Format: biochemical. Details: purchased SelleckChem A2004. Particulars: for heavy chain modified: 4 μM Atezo, 24 μM F1, PBS pH 7.4, 37° C., MALDI-TOF MS. The protocol:
(FIG. 4A) Acetylation reaction monitored by SDS-PAGE and fluorescent scanning. Reaction condition: 4 μM Atezo, 24 μM F1, PBS buffer (pH 7.4), at 37° C. for 1 h. The reactions were quenched with 1% SDS and DBCO-TAMRA was added at room temperature for 1.5 h for SPAAC reaction before SDS-PAGE and in-gel fluorescent imaging. […] (FIG. 4C) In-gel digestion for MALDI-TOF MS analysis to identify the acetylation site. Modified Lys 248 was marked in red. L chain: light chain, H chain: heavy chain, M-H chain: modified heavy chain, Atezo: atezolizumab.
(§1) IgG or IgG Fc labelling reactions. Unless otherwise noted, the final concentrations of proteins were 4 μM and peptides were 24 μM. The conjugation reactions were performed in PBS buffer (pH 7.4, 137 mM NaCl, 2.7 mM KCl, 10 mM Na2HPO4, 1.8 mM KH2PO4) at 37° C. for 1 h and stopped by 1% SDS. For copper-free click chemistry, the protein-peptide reaction mixture was first incubated with 100 uM DBCO-TAMRA at room temperature for 2 h and then denatured in the presence of loading dye. After resolved by SDS-PAGE, the gel was first observed in the fluorescence channel, and then stained with Coomassie Brilliant Blue dye.
Characterization of IgG or IgG Fc modification by MALDI-TOF MS. To characterize Fc region, 5 μg protein sample was used. Firstly, Fc was treated in the presence of TCEP (20 mM) at 60° C. for 10 min. Then, the sample was acidified with TFA at a pH of <4. After prewetting, C4 ZipTip was equilibrated with water (0.1% TFA). Binding of Fc was realized by aspirating and dispensing sample 7 to 10 cycles. The tip was next washed 3 times and eluted by 5 μL 70% acetonitrile/water solution with 0.1% TFA. Now the sample was ready for MALDI-TOF MS analysis. For characterization of modified Fc region, the reaction was first quenched by acidification (For acid labile antibodies, the peptide f-F0 could be used to quench the reaction.). After coupling with DBCO-TAMRA, the sample was reduced. Then, the sample was desalted and concentrated by using the same procedure. […]

In data set [1] the test system is IgG Fc in a protein mixture of HeLa cell lysate. Particulars: Fc-spiked HeLa cell lysate, RIPA lysis buffer pH 7.4, 37° C., 1 h, 6-fold excess of peptide. The protocol: Fc protein was spiked to a mixture of proteins from HeLa cell lysate, and the F1 peptide was added to the lysate to initiate acetylation reaction. […] Reactions were performed in pH 7.4 RIPA lysis buffer at 37° C. for 1 h with a 6-fold excess of peptides, followed by copper-free click chemistry with DBCO-TAMRA. Then the reactions were analyzed by denaturing SDS-PAGE and imaged using in-gel fluorescence scanning and Coomassie blue staining.

The next data set relates to IgG Fc from mice. Briefly: Target selectivity of peptide-driven acetylation towards IgG from different species (mouse). Format: biochemical. The following applies: 4 μM protein, 24 μM F1, PBS pH 7.4, 37° C., 1 h. The protocol:
(§2) FIG. 10 Target selectivity of peptide-driven acetylation towards IgG from different species. Reaction condition: 4 μM protein, 24 μM F1, PBS buffer (pH 7.4), at 37° C. for 1 h. The reactions were quenched with 1% SDS and DBCO-TAMRA was added at room temperature for 1.5 h for copper-free click chemistry. […] Each lane contains […] of antibodies.
as §1

Data set [2] in a line: Hydrolysis of peptide ester monitored by HPLC. Format: physicochemical. The protocol:
(§3) FIG. 2A-2C Kinetic details of the acetylation reaction and hydrolysis of F1. (FIG. 2A) Reactions at different peptide-to-IgG Fc ratios. Reactions were performed in PBS buffer (pH 7.4) at 37° C. for 1 h. Protein loading in each lane is 2 μg. (FIG. 2B) Reaction kinetics. Reaction condition: 4 μM IgG Fc, 24 μM F1, PBS buffer (pH 7.4), at 37° C. The reactions were quenched with 1% SDS at different time points. After conducting an SPAAC reaction with DBCO-PEG4-TAMRA, the reactions were denatured and resolved by SDS-PAGE. Product conversion was quantified based on band-shift in the SDS-PAGE image. (FIG. 2C) Hydrolysis of peptide ester (24 μM) monitored by HPLC in pH 7.4 PBS buffer at 37° C.

A further data set has as its system human IgG Fc. Description: Peptide-driven acetylation (labelling) of human IgG Fc, SDS-PAGE in-gel fluorescence / MALDI-TOF MS. Format: biochemical. The protocol: as §3
FIG. 27A-27B The study of IgG Fc acetylation reaction with different payloads. (FIG. 27A) A set of reactive peptides with different acyl groups tested for labeling efficiency. (FIG. 27B) The yields of IgG Fc labeled by peptides at 37° C. Reaction condition: 4 μM IgG Fc, 24 μM peptide, in PBS buffer (pH 7.4) for 2 h or in borate buffer (pH 8.5) for 15 h, respectively. […] The yields were quantified by MS analysis with in-solution Glu-C digestion of modified Fc or by in-gel fluorescent image (FIGS. 27A-27B, […]).
as §1
Characterization of IgG or IgG Fc modification by MALDI-TOF MS. To characterize Fc region, 5 μg protein sample was used. Firstly, Fc was treated in the presence of TCEP (20 mM) at 60° C. for 10 min. Then, the sample was acidified with TFA at a pH of <4. After prewetting, C4 ZipTip was equilibrated with water (0.1% TFA). Binding of Fc was realized by aspirating and dispensing sample 7 to 10 cycles. The tip was next washed 3 times and eluted by 5 μL 70% acetonitrile/water solution with 0.1% TFA. Now the sample was ready for MALDI-TOF MS analysis. For characterization of modified Fc region, the reaction was first quenched by acidification (For acid labile antibodies, the peptide f-F0 could be used to quench the reaction.). After coupling with DBCO-TAMRA, the sample was reduced. Then, the sample was desalted and concentrated by using the same procedure. […] Next the sample was purified by HPLC with C4 column, and peaks were collected and lyophilized. The sample was dissolved in 50% acetonitrile/water solution with 0.1% TFA and subjected to MALDI-TOF MS analysis.

Another data set relates to rabbit IgG. Description: Target selectivity of peptide-driven acetylation towards IgG from different species (rabbit). Format: biochemical. The following applies: 4 μM protein, 24 μM F1, PBS pH 7.4, 37° C., 1 h. As for the experimental part: as §2, §1
In data set [3] the test system is PD-L1 positive (PC12) cells. Description: Immunofluorescence of modified atezolizumab, confocal microscopy. Format: cell-based. The following applies: 150 nM, PBS pH 7.4, 37° C., 15 min. As for the experimental part: FIG. 5A-5B Acetylation of therapeutic antibody and immunofluorescence. (FIG. 5A) Acetylation reaction monitored by SDS-PAGE and fluorescent scanning. Reaction condition: 4 μM antibodies, 24 μM F1, PBS buffer (pH 7.4), at 37° C. for 1 h. The reactions were quenched with 1% SDS and DBCO-TAMRA was added at room temperature for 1.5 h for SPAAC reaction before SDS-PAGE and in-gel fluorescent imaging. Lane M, molecular weight marker; lane 1, M-trastuzumab; lane 2, M-cetuximab; lane 3, M-daratumumab; […], reduced results of […]. […] Incubation conditions: Cells were incubated with modified antibodies (150 nM) in PBS buffer (pH 7.4) at 37° C. for 15 min before the fixation of cells.

The target of the next data set is T1, His-tagged human PD-L1 (Homo sapiens, UniProt Q9NZQ7).
T1 construct: purchased GenScript
T1 sequence (Q9NZQ7 19-290): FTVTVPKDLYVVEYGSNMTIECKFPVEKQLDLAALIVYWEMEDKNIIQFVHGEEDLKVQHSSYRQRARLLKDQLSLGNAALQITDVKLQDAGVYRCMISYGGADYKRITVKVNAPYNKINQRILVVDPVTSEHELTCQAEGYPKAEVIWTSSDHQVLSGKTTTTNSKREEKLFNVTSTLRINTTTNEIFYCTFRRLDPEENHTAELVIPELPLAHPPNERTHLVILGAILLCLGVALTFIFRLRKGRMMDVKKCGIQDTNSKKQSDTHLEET
Description: Pull-down assay of modified atezolizumab on PD-L1 loaded Ni-NTA resins. Format: binding. Particulars: PD-L1 immobilized on Ni-NTA resins. The protocol: (FIG. 16A) A pull-down experiment in vitro. […] (FIG. 16B) FITC labeled PD-L1 was immobilized on Ni-NTA agarose resin through polyhistidine tag.
Ni-NTA agarose resins were resuspended and 20 μL resins were pipetted into a 1.5 mL tube. After washing with PBS-T buffer (phosphate buffered saline supplemented with 0.1% Tween-20), His-tagged human PD-L1 (200 nM) was immobilized on Ni-NTA resins in 100 μL buffer solution (20 mM imidazole, pH 7.4 PBS-T) at room temperature for 1 h with shaking. The binding solution was removed by centrifugation and the resins were washed three times with pH 7.4 PBS-T buffer. Then Atezo-TAMRA (100 nM) was incubated with the resins in 100 μL buffer solution (20 mM imidazole, pH 7.4 PBS-T) for 1 h with shaking. Next, the resins were washed three times with PBS-T and eluted by boiling the beads for 10 min in 2× sample loading buffer. The samples were analyzed by SDS-PAGE. As a negative control, same amount of polyclonal IgG was incubated with the PD-L1 loaded resins. For confocal microscopy, His-tagged human PD-L1 was firstly labelled by FITC.

Sequence of atezolizumab (P01857 whole entry N180A/D239E/L241M, looked up, other chains not shown): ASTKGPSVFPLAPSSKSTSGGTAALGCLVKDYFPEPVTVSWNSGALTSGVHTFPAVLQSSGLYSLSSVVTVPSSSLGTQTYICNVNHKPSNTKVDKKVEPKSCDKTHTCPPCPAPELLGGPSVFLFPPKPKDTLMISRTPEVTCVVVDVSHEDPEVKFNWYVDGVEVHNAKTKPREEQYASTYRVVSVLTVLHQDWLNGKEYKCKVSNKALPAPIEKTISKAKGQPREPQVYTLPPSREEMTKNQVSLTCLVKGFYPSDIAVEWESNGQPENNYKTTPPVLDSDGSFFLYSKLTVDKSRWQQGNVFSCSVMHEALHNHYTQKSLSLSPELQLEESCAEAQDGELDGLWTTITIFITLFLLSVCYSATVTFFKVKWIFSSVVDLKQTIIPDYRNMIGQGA

Take `CC(C)C[C@@H]1NC(=O)C(CCC(=O)O)NC(=O)CNC(=O)[C@H](CC(C)C)NC(=O)[C@H](Cc2c[nH]cn2)NC(=O)[C@H](Cc2c[nH]c3ccccc23)NC(=O)[C@H](C)NC(=O)[C@@H](NC(=O)[C@H](CC(=O)O)NC(=O)CCNC(=O)CNC(=S)Nc2ccc(-c3c4ccc(=O)cc-4oc4cc(O)ccc34)c(C(=O)O)c2)CSSC[C@@H](C(=O)N[C@H](C(N)=O)[C@@H](C)O)NC(=O)[C@H](Cc2c[nH]c3ccccc23)NC(=O)[C@H](C(C)C)NC1=O` (stereo partly drawn) [f-F0]: in the data set on IgG Fc, the “effect on the acetylation reaction of F1 and IgG” value is on record as “abolished the acetylation reaction”.
For the compound `CC(=O)N[C@@H](CC(=O)O)C(=O)N[C@H]1CNC(=O)CSC[C@@H](C(=O)N[C@H](C(N)=O)[C@@H](C)O)NC(=O)[C@H](Cc2c[nH]c3ccccc23)NC(=O)[C@H](C(C)C)NC(=O)[C@H](CC(C)C)NC(=O)[C@H](CCC(=O)Nc2ccc(OC(=O)CN=[N+]=[N-])cc2)NC(=O)CNC(=O)[C@H](CC(C)C)NC(=O)[C@H](Cc2c[nH]cn2)NC(=O)[C@H](Cc2c[nH]c3ccccc23)NC(=O)[C@H](C)NC1=O` [F1], at atezolizumab (37° C. for 1 h), the “chain selectivity of acetylation” value was “acetylated the heavy chain only”. The heavy chain modified is on record as ~50% at atezolizumab (in 15 minutes) and ~80% on atezolizumab (in 1 h). Further, the “selectivity of acetylation in a complex protein mixture” value in [1] is given as “selectively acetylate IgG Fc in a protein mixture of HeLa cell lysate without an appreciable level of background reactions”. In addition, the “reactivity with IgG Fc by species” value with IgG Fc from mice was “not the IgG Fc from mice”; with human IgG Fc (human, 4 μM protein, 24 μM F1, PBS pH 7.4, 37° C., 1 h), “only reacted with human and rabbit IgG Fcs”; with rabbit IgG, “only reacted with human and rabbit IgG Fcs”. Also, the stability of peptide result in data set [2] (basic condition (pH 8.5)) is given as “extremely unstable at basic condition”. Besides, the “peptide ester lost by hydrolysis” value in [2] (in 1 h at pH 7.4, PBS, 37° C., 24 μM, absence of IgGs) is reported as “about 70%”. In addition, the “time to 50% completion of the acetylation reaction” value in the data set on human IgG Fc (4 μM IgG Fc, 24 μM F1, PBS buffer pH 7.4, 37° C.) was “less than 30 min”. For the same compound, the “acetylation reaction conversion within 1 h” value with human IgG Fc (IgG Fc 2 μM to 20 μM, F1:IgG Fc ratio 6:1, PBS pH 7.4, 37° C.) is > 50%.
“M-Atezo: atezolizumab azidoacetylated at Lys248 of the Fc by F1 (DBCO-TAMRA tagged for detection)”: the “binding to cells (immunofluorescence)” value in data set [3] is reported as “maintained their binding with PD-L1 positive (PC12) cells”. Besides, the “binding to PD-L1 (pull-down)” value with His-tagged human PD-L1 is reported as “reserved the binding ability to PD-L1”; in the data set with His-tagged human PD-L1 (listed as acetylated atezolizumab), “could still bind its ligand”.
